{"source": "patent US8802702B2", "about": "“Compounds for reducing drug resistance and uses thereof” (The General Hospital Corporation, priority 2009, dated 2014)", "assay_type_in_all_cases": "cell-based, human", "key": {"[1]": {"system": "Pgp1 substrate retention in SKOV-3TR cells", "assay": "Fluorescence microscopy of Pgp substrate accumulation", "procedure": "FIG. 8 depicts the increase in Pgp1 substrate accumulation in SKOV-3TR by NSC23925. Images of SKOV-3TR cells incubated with various fluorescent substrates of Pgp1 in the presence (bottom panel) and absence (top panel) of NSC23925. For visualization of effects of NSC23925 on the intracellular retention of rhodamine 123, mitoxantrone, Dioc2, doxorobucin, and calcein AM, 10,000 resistant cells were seeded on to Lab-Tek 8-well chamber slides on the day prior to the assay. SKOV-3TR cells were then incubated with either 1 μM rhodamine 123, 10 μM mitoxantrone, 0.1 μM Dioc2, 10 μM doxorubicin or 0.25 μM calcein AM either alone or in the presence of NSC23925 in RPMI 1640 media for one hour at 37° C. Image were acquired a Nikon Eclipse Ti-U fluorescence microscope (Nikon Corp.) equipped with a SPOT RT digital camera (Diagnostic Instruments, Inc., Sterling Heights, Mich.).\nFor visualization of the effects of NSC23925 on the intracellular retention of calcein AM, doxorubicin, and mitoxantrone, 10,000 resistant cells were seeded on to Lab-Tek 8-well chamber slides on the day prior to the assay. […] Images were acquired by Nikon Eclipse Ti-U fluorescence microscope (Nikon Corp.) equipped with a SPOT RT digital camera (Diagnostic Instruments, Inc., Sterling Heights, Mich.)."}, "[2]": {"system": "Pgp1 expression in SKOV-3TR cells", "assay": "Pgp1 expression by Western blot", "details": "NSC23925 up to 10 μM for 48 h"}, "[3]": {"system": "Pgp1 mediated transport in SKOV-3TR cells", "assay": "Duration of MDR reversal after incubation and washout", "details": "overnight exposure 1 μM", "procedure": "Drug cytotoxicity was determined by MTT assay.\nThe cells were then incubated for 4 days with addition of varying concentrations of paclitaxel. Final results were determined by MTT assay as described above."}, "KHOSR2 cells": {"system": "KHOSR2 cells", "assay": "Reversal of drug resistance, cytotoxicity assay in KHOSR2", "details": "for IC50: Homo sapiens"}, "SKOV-3 and OVCAR8 cells": {"system": "SKOV-3 and OVCAR8 cells", "assay": "Calcein AM drug efflux assay in parental drug-sensitive cells", "details": "SKOV-3 and OVCAR8, do not overexpress Pgp1", "description": "The VYBRANT™ multi-drug resistance assay kit (Invitrogen/Molecular Probes) was used to measure drug efflux properties of different resistant cell lines. This assay utilizes the fluorogenic dye calcein acetoxymethyl ester (calcein AM) as a substrate for efflux activity of Pgp1 or other membrane pump ABC proteins. Calcein AM is taken up by cells and hydrolyzed by cytoplasmic esterases to fluorescent calcein. Calcein AM is well retained in the cytosol. However, multi-drug resistant cells expressing high levels of Pgp1 rapidly extrude non-fluorescent calcein AM from the plasma membrane, reducing accumulation of fluorescent calcein in the cytosol. Drug sensitive and resistant cells (3×10^5) were cultured in 96-well plate for 24 hours and then incubated in 0.25 μM calcein AM in 150 μl total volume. After 30 minutes, the cells in plate were washed and centrifuged twice with 200 μl cold RPMI1640 culture medium, and cell fluorescence was measured at a […] on a SPECTRAMAX™ Microplate Spectrofluorometer (Molecular Devices)."}, "[4]": {"system": "H69/AR cells (express MRP1, not Pgp1)", "assay": "Reversal of drug resistance in non-Pgp1 MDR cells expressing MRP1"}, "[5]": {"system": "OVCAR8 and OVCAR8TR cells", "assay": "Cytotoxicity of NSC23925 alone (MTT assay), OVCAR8/OVCAR8TR", "procedure": "Cells were treated with the NSC23925 in RPMI1640 complete media at the indicated concentrations. The relative sensitivity of each line to NSC23925 was determined by MTT assay. A: Nonspecific toxicity of NSC23925 on SKOV3 vs SKOV-3TR. B: Nonspecific toxicity of NSC23925 on OVCAR8 vs OVCAR8TR. Drug cytotoxicity was assessed in vitro using the MTT assay. SKOV-3 and SKOV-3TR cells were used herein. Briefly, 2×10^3 cells per well were plated in 96-well plates in culture medium (RPMI 1640 supplemented with 10% fetal bovine serum and penicillin/streptomycin) containing increasing concentrations of drug. After 7 days of culture, 10 μl MTT (5 mg/ml in PBS, obtained from Sigma) were added to each well and the plates were incubated for 4 h. The resulting formazan product was dissolved with acid-isopropanol and the absorbance at a wavelength of 490 nm (A490) was read on a SPECTRAmax® Microplate Spectrophotometer (Molecular Devices, Sunnyvale, Calif.). The absorbance values were normalized by assigning the value of the control line in the medium without drug to 1.0 and the value of the no cell control to 0. Experiments were performed in triplicate."}, "[6]": {"system": "SKOV-3TR and KHOSR2 cells", "assay": "Flow cytometry of intracellular doxorubicin retention", "details": "5 μM doxorubicin, NSC23925 0.5 μM, 1 hour", "procedure": "FIG. 9 depicts the intracellular retention of doxorubicin from multidrug resistant SKOV-3TR and KHOSR2 cells in the presence of 5 μM doxorubicin with or without treatment of NSC23925 (0.5 μM). Cells were treated for 1 hour before the flow cytometry analysis."}}, "note": "Where two headings read alike, the source gives them in different places."}
{"molecule": "COc1ccc(-c2cc(C(O)C3CCCCN3)c3ccccc3n2)cc1", "note": "(stereo not drawn) [NSC23925, (2-(4-methoxyphenyl)quinolin-4-yl)(piperidin-2-yl)methanol]", "values": [{"measurement": "Fluorescence of SKOV-3TR cells incubated with fluorescent Pgp substrates", "setting": "[1]; 1 μM NSC23925, one hour at 37° C.", "result": "highly fluorescent"}, {"measurement": "Efflux of Pgp1 substrates Rhodamine 123, mitoxantrone, dioc 2 and doxorubicin from SKOV-3TR", "setting": "[1]; fluorescence", "result": "inhibited the efflux"}, {"measurement": "Expression level of Pgp1", "setting": "[2]", "result": "not affected"}, {"measurement": "Duration of inhibition of Pgp1 mediated transport after wash-out", "setting": "[3]", "result": "at least 4 days"}, {"measurement": "fold-reversal of drug resistance, KHOSR2", "setting": "KHOSR2 cells; Doxorubicin, add NSC23925 0.1 μM", "result": "(1.4) fold"}, {"measurement": "fold-reversal of drug resistance, KHOSR2", "setting": "KHOSR2 cells; Doxorubicin, add NSC23925 0.5 μM", "result": "(8.6) fold"}, {"measurement": "fold-reversal of drug resistance, KHOSR2", "setting": "KHOSR2 cells; Doxorubicin, add NSC23925 1 μM", "result": "(35) fold"}, {"measurement": "fold-reversal of drug resistance, KHOSR2", "setting": "KHOSR2 cells; ET-743, add NSC23925 0.1 μM", "result": "(1.2) fold"}, {"measurement": "fold-reversal of drug resistance, KHOSR2", "setting": "KHOSR2 cells; ET-743, add NSC23925 0.5 μM", "result": "(2.1) fold"}, {"measurement": "fold-reversal of drug resistance, KHOSR2", "setting": "KHOSR2 cells; ET-743, add NSC23925 1 μM", "result": "(3.2) fold"}, {"measurement": "IC50", "setting": "KHOSR2 cells; Doxorubicin, add NSC23925 0.1 μM, read-out: KHOSR2 IC50 of Doxorubicin", "result": "7360 ± 336", "unit": "nM"}, {"measurement": "IC50", "setting": "KHOSR2 cells; Doxorubicin, add NSC23925 0.5 μM, read-out: KHOSR2 IC50 of Doxorubicin", "result": "1200 ± 461", "unit": "nM"}, {"measurement": "IC50", "setting": "KHOSR2 cells; Doxorubicin, add NSC23925 1 μM, read-out: KHOSR2 IC50 of Doxorubicin", "result": "292 ± 210", "unit": "nM"}, {"measurement": "IC50", "setting": "KHOSR2 cells; ET-743, add NSC23925 0.1 μM, read-out: KHOSR2 IC50 of ET-743", "result": "145 ± 45", "unit": "nM"}, {"measurement": "IC50", "setting": "KHOSR2 cells; ET-743, add NSC23925 0.5 μM, read-out: KHOSR2 IC50 of ET-743", "result": "83 ± 39", "unit": "nM"}, {"measurement": "IC50", "setting": "KHOSR2 cells; ET-743, add NSC23925 1 μM, read-out: KHOSR2 IC50 of ET-743", "result": "54 ± 34", "unit": "nM"}, {"measurement": "IC50", "setting": "KHOSR2 cells; PM00104, add NSC23925 0.1 μM, read-out: KHOSR2 IC50 of PM00104", "result": "113 ± 38", "unit": "nM"}, {"measurement": "IC50", "setting": "KHOSR2 cells; PM00104, add NSC23925 0.5 μM, read-out: KHOSR2 IC50 of PM00104", "result": "26 ± 14", "unit": "nM"}, {"measurement": "IC50", "setting": "KHOSR2 cells; PM00104, add NSC23925 1 μM, read-out: KHOSR2 IC50 of PM00104", "result": "8 ± 16", "unit": "nM"}, {"measurement": "IC50", "setting": "KHOSR2 cells; Paclitaxel, add NSC23925 0.1 μM, read-out: KHOSR2 IC50 of Paclitaxel", "result": "160 ± 16", "unit": "nM"}, {"measurement": "IC50", "setting": "KHOSR2 cells; Paclitaxel, add NSC23925 0.5 μM, read-out: KHOSR2 IC50 of Paclitaxel", "result": "120 ± 32", "unit": "nM"}, {"measurement": "IC50", "setting": "KHOSR2 cells; Paclitaxel, add NSC23925 1 μM, read-out: KHOSR2 IC50 of Paclitaxel", "result": "60 ± 20", "unit": "nM"}, {"measurement": "fold-reversal of drug resistance, KHOSR2", "setting": "KHOSR2 cells; PM00104, add NSC23925 0.1 μM", "result": "(1.3) fold"}, {"measurement": "fold-reversal of drug resistance, KHOSR2", "setting": "KHOSR2 cells; PM00104, add NSC23925 0.5 μM", "result": "(5.5) fold"}, {"measurement": "fold-reversal of drug resistance, KHOSR2", "setting": "KHOSR2 cells; PM00104, add NSC23925 1 μM", "result": "(17.9) fold"}, {"measurement": "fold-reversal of drug resistance, KHOSR2", "setting": "KHOSR2 cells; Paclitaxel, add NSC23925 0.1 μM", "result": "(1.3) fold"}, {"measurement": "fold-reversal of drug resistance, KHOSR2", "setting": "KHOSR2 cells; Paclitaxel, add NSC23925 0.5 μM", "result": "(1.8) fold"}, {"measurement": "fold-reversal of drug resistance, KHOSR2", "setting": "KHOSR2 cells; Paclitaxel, add NSC23925 1 μM", "result": "(3.5) fold"}, {"measurement": "Effect on accumulation of calcein AM in parental drug-sensitive cells", "setting": "SKOV-3 and OVCAR8 cells", "result": "no evident effect"}, {"measurement": "Reversal of drug resistance in H69/AR cells", "setting": "[4]", "result": "unable to reverse drug resistance"}, {"measurement": "Cytotoxic effect of NSC23925 alone in parental OVCAR8", "setting": "[5]; <5-10 μM NSC23925 alone, cells lack Pgp1", "result": "no cytotoxic effect"}, {"measurement": "IC50", "setting": "[5]; Homo sapiens, OVCAR-8, OVCAR8/OVCAR8TR, single agent, read-out: IC50 for NSC23925 (proliferation)", "result": 25000, "unit": "nM"}, {"measurement": "Accumulation of doxorubicin by flow cytometric analysis", "setting": "[6]", "result": "increases the accumulation of doxorubicin"}]}
